Target: WT A/M2 protein (Influenza A virus, UniProt P0DOF5)
Assay: biochemical
Conditions: read-out: % WT inhibition

Chain of WT A/M2 protein (P0DOF5 whole entry): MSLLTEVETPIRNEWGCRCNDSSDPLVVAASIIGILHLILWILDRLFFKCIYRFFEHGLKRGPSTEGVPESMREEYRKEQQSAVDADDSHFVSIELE

Row | Compound | inhibition at 100 µM
1 | c1ccc(-c2nc(CNC34CC5CC(CC(C5)C3)C4)cs2)cc1 [26i] | 0%
2 | Oc1ccc(NC23CC4CC(CC(C4)C2)C3)c(O)c1 [compound 5] | 64%
